Experimental data reported in ChEMBL document CHEMBL6127119 (J Med Chem, 2024).
In brackets after ≈: the same amount, converted by molar mass.

Columns and labels:
Format in all cases: functional
Conditions in all cases: time 16-24 hrs
[1] = tested on: Enterococcus faecium; assay: Antibacterial activity against vancomycin-resistant Enterococcus faecium harboring VanB phenotype incubated for 16 to 24 hrs by CLSI based broth microdilution method
[2] = tested on: Staphylococcus aureus; assay: Antibacterial activity against vancomycin-intermediate Staphylococcus aureus incubated for 16 to 24 hrs by CLSI based broth microdilution method
[3] = tested on: Escherichia coli; assay: Antibacterial activity against Escherichia coli AB1157 incubated for 16 to 24 hrs by CLSI based broth microdilution method
[4] = tested on: Enterococcus faecium; assay: Antibacterial activity against vancomycin-resistant Enterococcus faecium harboring VanA phenotype incubated for 16 to 24 hrs by CLSI based broth microdilution method
[5] = tested on: Enterococcus faecium; assay: Antibacterial activity against vancomycin-resistant Enterococcus faecium harboring VanM phenotype incubated for 16 to 24 hrs by CLSI based broth microdilution method
[6] = tested on: Klebsiella pneumoniae; assay: Antibacterial activity against Klebsiella pneumoniae clinical isolate incubated for 16 to 24 hrs by CLSI based broth microdilution method
[7] = tested on: Staphylococcus aureus; assay: Antibacterial activity against methicillin-susceptible Staphylococcus aureus incubated for 16 to 24 hrs by CLSI based broth microdilution method
[8] = tested on: Acinetobacter baumannii; assay: Antibacterial activity against Carbapenem-resistant Acinetobacter baumannii clinical isolate incubated for 16 to 24 hrs by CLSI based broth microdilution method
[9] = tested on: Pseudomonas aeruginosa; assay: Antibacterial activity against Pseudomonas aeruginosa PAO1 incubated for 16 to 24 hrs by CLSI based broth microdilution method

In the case of `CC(C)C[C@@H](N)C(=O)N[C@H]1C(=O)N[C@@H](CC(N)=O)C(=O)N[C@H]2C(=O)N[C@H]3C(=O)N[C@H](C(=O)N[C@H](C(=O)NCCCCCCCCNC(=N)N)c4cc(O)cc(O)c4-c4cc3ccc4O)[C@H](O)c3ccc(c(Cl)c3)Oc3cc2cc(c3O[C@@H]2O[C@H](CO)[C@@H](O)[C@H](O)[C@H]2O[C@H]2C[C@](C)(N)[C@H](O)[C@H](C)O2)Oc2ccc(cc2Cl)[C@H]1O`, the MIC [1] is reported as 8 µg/mL (≈ 4.99 µM), the MIC [2] is reported as 2 µg/mL (≈ 1.25 µM) and the MIC [3] is reported as 8 µg/mL (≈ 4.99 µM). For the same molecule, the MIC [4] was 16 µg/mL (≈ 9.98 µM), the MIC [5] was 32 µg/mL (≈ 20 µM) and the MIC [6] was greater than 128 µg/mL. The MIC [7] was 0.5 µg/mL (≈ 0.312 µM), the MIC [8] was 64 µg/mL (≈ 39.9 µM) and the MIC [9] was 128 µg/mL (≈ 79.8 µM).
Molecule `CC(C)C[C@@H](N)C(=O)N[C@H]1C(=O)N[C@@H](CC(N)=O)C(=O)N[C@H]2C(=O)N[C@H]3C(=O)N[C@H](C(=O)N[C@H](C(=O)NCc4ccc(-c5ccc(CCN)cc5)cc4)c4cc(O)cc(O)c4-c4cc3ccc4O)[C@H](O)c3ccc(c(Cl)c3)Oc3cc2cc(c3O[C@@H]2O[C@H](CO)[C@@H](O)[C@H](O)[C@H]2O[C@H]2C[C@](C)(N)[C@H](O)[C@H](C)O2)Oc2ccc(cc2Cl)[C@H]1O` has an MIC [1] of 8 µg/mL (≈ 4.87 µM), an MIC [2] of 1 µg/mL (≈ 0.608 µM) and an MIC [3] of 16 µg/mL (≈ 9.74 µM). The MIC [4] was 4 µg/mL (≈ 2.43 µM), the MIC [5] was 16 µg/mL (≈ 9.74 µM) and the MIC [6] was greater than 128 µg/mL. The MIC [7] was 0.25 µg/mL (≈ 0.152 µM), the MIC [8] was greater than 128 µg/mL and the MIC [9] was greater than 128 µg/mL.
In the case of `CN[C@H](CC(C)C)C(=O)N[C@H]1C(=O)N[C@@H](CC(N)=O)C(=O)N[C@H]2C(=O)N[C@H]3C(=O)N[C@H](C(=O)N[C@H](C(=O)N[C@H](CCCNC(=N)N)C(N)=O)c4cc(O)cc(O)c4-c4cc3ccc4O)[C@H](O)c3ccc(c(Cl)c3)Oc3cc2cc(c3O[C@@H]2O[C@H](CO)[C@@H](O)[C@H](O)[C@H]2O[C@H]2C[C@](C)(N)[C@H](O)[C@H](C)O2)Oc2ccc(cc2Cl)[C@H]1O`, the MIC [1] is reported as 16 µg/mL (≈ 9.97 µM), the MIC [2] is reported as 1 µg/mL (≈ 0.623 µM) and the MIC [3] is reported as 8 µg/mL (≈ 4.99 µM). For the same molecule, the MIC [4] was 8 µg/mL (≈ 4.99 µM), the MIC [5] was 32 µg/mL (≈ 19.9 µM) and the MIC [6] was 128 µg/mL (≈ 79.8 µM). For the same molecule, the MIC [7] was 0.5 µg/mL (≈ 0.312 µM), the MIC [8] was 32 µg/mL (≈ 19.9 µM) and the MIC [9] was greater than 128 µg/mL.
Work on `CN[C@H](CC(C)C)C(=O)N[C@H]1C(=O)N[C@@H](CC(N)=O)C(=O)N[C@H]2C(=O)N[C@H]3C(=O)N[C@H](C(=O)N[C@H](C(=O)O)c4cc(O)c(CNCCCCCCCCN)c(O)c4-c4cc3ccc4O)[C@H](O)c3ccc(c(Cl)c3)Oc3cc2cc(c3O[C@@H]2O[C@H](CO)[C@@H](O)[C@H](O)[C@H]2O[C@H]2C[C@](C)(N)[C@H](O)[C@H](C)O2)Oc2ccc(cc2Cl)[C@H]1O` yielded an MIC [1] of 32 µg/mL (≈ 19.9 µM), an MIC [2] of 8 µg/mL (≈ 4.98 µM) and an MIC [3] of 128 µg/mL (≈ 79.7 µM). It also gave an MIC [4] of 128 µg/mL (≈ 79.7 µM), an MIC [5] of 128 µg/mL (≈ 79.7 µM) and an MIC [6] greater than 128 µg/mL. For the same molecule, the MIC [7] was 4 µg/mL (≈ 2.49 µM), the MIC [8] was 128 µg/mL (≈ 79.7 µM) and the MIC [9] was 128 µg/mL (≈ 79.7 µM).
Work on `CC(C)C[C@@H](N)C(=O)N[C@H]1C(=O)N[C@@H](CC(N)=O)C(=O)N[C@H]2C(=O)N[C@H]3C(=O)N[C@H](C(=O)N[C@H](C(=O)NCCCCN)c4cc(O)cc(O)c4-c4cc3ccc4O)[C@H](O)c3ccc(c(Cl)c3)Oc3cc2cc(c3O[C@@H]2O[C@H](CO)[C@@H](O)[C@H](O)[C@H]2O[C@H]2C[C@](C)(N)[C@H](O)[C@H](C)O2)Oc2ccc(cc2Cl)[C@H]1O` yielded an MIC [1] of 128 µg/mL (≈ 85 µM), an MIC [2] of 8 µg/mL (≈ 5.31 µM) and an MIC [3] of 32 µg/mL (≈ 21.3 µM). For the same molecule, the MIC [4] was 64 µg/mL (≈ 42.5 µM), the MIC [5] was 128 µg/mL (≈ 85 µM) and the MIC [6] was greater than 128 µg/mL. For the same molecule, the MIC [7] was 0.5 µg/mL (≈ 0.332 µM), the MIC [8] was greater than 128 µg/mL and the MIC [9] was greater than 128 µg/mL.
`CC(C)C[C@@H](N)C(=O)N[C@H]1C(=O)N[C@@H](CC(N)=O)C(=O)N[C@H]2C(=O)N[C@H]3C(=O)N[C@H](C(=O)N[C@H](C(=O)NCc4ccc(-c5ccccc5CN)cc4)c4cc(O)cc(O)c4-c4cc3ccc4O)[C@H](O)c3ccc(c(Cl)c3)Oc3cc2cc(c3O[C@@H]2O[C@H](CO)[C@@H](O)[C@H](O)[C@H]2O[C@H]2C[C@](C)(N)[C@H](O)[C@H](C)O2)Oc2ccc(cc2Cl)[C@H]1O` was tested, and the MIC [1] was 4 µg/mL (≈ 2.45 µM), the MIC [2] was 0.5 µg/mL (≈ 0.307 µM) and the MIC [3] was 8 µg/mL (≈ 4.91 µM). For the same molecule, the MIC [4] was 8 µg/mL (≈ 4.91 µM), the MIC [5] was 4 µg/mL (≈ 2.45 µM) and the MIC [6] was greater than 128 µg/mL. The MIC [7] was 0.25 µg/mL (≈ 0.153 µM), the MIC [8] was 16 µg/mL (≈ 9.82 µM) and the MIC [9] was 32 µg/mL (≈ 19.6 µM).
Molecule `CC(C)C[C@@H](N)C(=O)N[C@H]1C(=O)N[C@@H](CC(N)=O)C(=O)N[C@H]2C(=O)N[C@H]3C(=O)N[C@H](C(=O)N[C@H](C(=O)NCCCCCCCCN)c4cc(O)cc(O)c4-c4cc3ccc4O)[C@H](O)c3ccc(c(Cl)c3)Oc3cc2cc(c3O[C@@H]2O[C@H](CO)[C@@H](O)[C@H](O)[C@H]2O[C@H]2C[C@](C)(N)[C@H](O)[C@H](C)O2)Oc2ccc(cc2Cl)[C@H]1O` has an MIC [1] of 32 µg/mL (≈ 20.5 µM), an MIC [2] of 4 µg/mL (≈ 2.56 µM) and an MIC [3] of 32 µg/mL (≈ 20.5 µM). The MIC [4] was 32 µg/mL (≈ 20.5 µM), the MIC [5] was 32 µg/mL (≈ 20.5 µM) and the MIC [6] was greater than 128 µg/mL. The MIC [7] was 1 µg/mL (≈ 0.64 µM), the MIC [8] was greater than 128 µg/mL and the MIC [9] was 128 µg/mL (≈ 82 µM).
Molecule `CC(C)C[C@@H](N)C(=O)N[C@H]1C(=O)N[C@@H](CC(N)=O)C(=O)N[C@H]2C(=O)N[C@H]3C(=O)N[C@H](C(=O)N[C@H](C(=O)N[C@H](CCCNC(=N)N)C(N)=O)c4cc(O)cc(O)c4-c4cc3ccc4O)[C@H](O)c3ccc(c(Cl)c3)Oc3cc2cc(c3O[C@@H]2O[C@H](CO)[C@@H](O)[C@H](O)[C@H]2O[C@H]2C[C@](C)(N)[C@H](O)[C@H](C)O2)Oc2ccc(cc2Cl)[C@H]1O` has an MIC [1] of 32 µg/mL (≈ 20.1 µM), an MIC [2] of 16 µg/mL (≈ 10.1 µM) and an MIC [3] of 16 µg/mL (≈ 10.1 µM). It also gave an MIC [4] of 32 µg/mL (≈ 20.1 µM), an MIC [5] of 64 µg/mL (≈ 40.2 µM) and an MIC [6] greater than 128 µg/mL. For the same molecule, the MIC [7] was 0.5 µg/mL (≈ 0.314 µM), the MIC [8] was 64 µg/mL (≈ 40.2 µM) and the MIC [9] was 128 µg/mL (≈ 80.5 µM).
`CC(C)C[C@@H](N)C(=O)N[C@H]1C(=O)N[C@@H](CC(N)=O)C(=O)N[C@H]2C(=O)N[C@H]3C(=O)N[C@H](C(=O)N[C@H](C(=O)O)c4cc(O)c(CNCCCCCCCCN)c(O)c4-c4cc3ccc4O)[C@H](O)c3ccc(c(Cl)c3)Oc3cc2cc(c3O[C@@H]2O[C@H](CO)[C@@H](O)[C@H](O)[C@H]2O[C@H]2C[C@](C)(N)[C@H](O)[C@H](C)O2)Oc2ccc(cc2Cl)[C@H]1O` showed an MIC [1] of 64 µg/mL (≈ 40.2 µM), an MIC [2] of 4 µg/mL (≈ 2.51 µM) and an MIC [3] of 128 µg/mL (≈ 80.4 µM). For the same molecule, the MIC [4] was 128 µg/mL (≈ 80.4 µM), the MIC [5] was 128 µg/mL (≈ 80.4 µM) and the MIC [6] was greater than 128 µg/mL. It also gave an MIC [7] of 4 µg/mL (≈ 2.51 µM), an MIC [8] of 128 µg/mL (≈ 80.4 µM) and an MIC [9] of 128 µg/mL (≈ 80.4 µM).
